The test system of the experiment is T. cruzi-infected H9C2 cardiomyocytes, high-content imaging. Nature of the experiment: anti-T. cruzi activity in infected cardiomyocytes – imaging, H9C2 host cardiomyocytes, host toxicity (AID 1159565).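 Also: infected cells incubated 72 h after plating.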
Setting [1] is: measured here: H9C2 host cell toxicity.
The mark [2] stands for this setting: measured here: amastigotes per cell.

pIC50: −log10 of the molar value. Active and inactive are the calls of the source. No rule for the calls is given here. Some results are limits rather than exact numbers.

A word on the pIC50: it is −log10 of the IC50, conventionally taken in molar units. For `O=C(NCc1ccncc1)c1ccccc1N1CCCN(C(=O)Cc2ccc(F)c(F)c2)CC1`, the pIC50 was 7.10. The compound further gave a pIC50 under setting [1] of less than 4.30. The negative-log IC50 (pIC50) under setting [2] was 7.10.
Regarding `CCOc1ccc2nc(NC(=O)c3ccc([N+](=O)[O-])s3)sc2c1`, the pIC50 was 5.89. The compound also showed a pIC50 under setting [1] of 5.00. The compound further showed a negative logarithm of the IC50 (pIC50) under setting [2] of 6.00.
With `O=S(=O)(c1cccc(CSc2nnc(-c3ccc4c(c3)OCO4)o2)c1)N1CCOCC1`, the pIC50 was 7.00. The same compound had a pIC50 under setting [1] of 4.60. Also, the pIC50 under setting [2] is 7.40.
On the same counts, the results for `CC(C)N(C(=O)CN1C(=O)C(N)C(=O)N(c2ccccc2)c2ccccc21)c1ccccc1` (stereo not drawn) are 6.49, less than 4.30 and 6.40.
In the same order, the values of `CS(=O)(=O)c1cccc(-c2cnc(N)c3c(-c4ccc(CO)cc4)csc23)c1` are 6.20, less than 4.30 and 6.49.
As for `c1ccc(-c2nc(NCc3ccco3)c3ccccc3n2)nc1`, the pIC50 is 5.49. Moreover, the pIC50 under setting [1] is 5.70. Under setting [2], this compound gave a pIC50 of 5.40.
Turning to `CC(C)Oc1cccc(N2CCC(C(=O)N3CCCN(C(C)C)CC3)CC2)c1`, the pIC50 was 6.20. Moreover, the negative-log IC50 (pIC50) under setting [1] is less than 4.30. Under setting [2], this compound had a pIC50 of 6.60.
On the same counts, the results for `O=c1ccc2ccc(F)c3c2n1C[C@H]3CN1CCN(CC(O)c2cc3c(cn2)OCS3)CC1` (stereo partly drawn) are 6.20, less than 4.30 and 6.49.
On to `COCCn1c(-c2ccc3c(c2)OCO3)cnc1NCc1ccccc1OC`, for which the pIC50 was 4.70. Also, under setting [1], the pIC50 was 4.40. This compound gave a negative-log IC50 (pIC50) under setting [2] of 5.10.
In the same order, the values of `CC(C)(C)CC(=O)NCc1noc(COc2ccccc2)n1` are 5.60, less than 4.30 and 5.60.
By IC50 is commonly meant the concentration that gives 50% inhibition. On to `O=C(COc1nn(-c2ccccc2)c2ncccc12)NCc1ccccc1`, for which the IC50 was > 50000 nM (inactive). In addition, under setting [1], the pIC50 was less than 4.30. The pIC50 under setting [2] is 4.49.
In the same order, the values of `O=C(c1ccc(Cl)cc1)c1ccc(OC(=O)N2CCOCC2)cc1` are > 50000 nM (inactive), less than 4.30 and 5.20.
As for `O=C(Cn1cnc2c(-c3ccccc3)csc2c1=O)N1CCCCC1`, the pIC50 was 5.40. The compound further gave a pIC50 under setting [1] of less than 4.30. Besides, under setting [2], the pIC50 is 5.49.
In the case of `CN(C(=O)Nc1ccc2c(c1)CCN(C1CCC1)CC2)c1ccc(C#N)cc1`, the pIC50 is 5.40. The compound also gave a pIC50 under setting [1] of less than 4.30. The compound further gave a pIC50 under setting [2] of 5.70.
Consider `O=C(NC1CCN(C2Cc3ccc(NS(=O)(=O)c4cc(F)cc(F)c4)cc3C2)CC1)C1CC1` (stereo not drawn), for which the IC50 was > 50000 nM (inactive). For the same compound, the pIC50 under setting [1] was less than 4.30. The pIC50 under setting [2] was less than 4.30.
For `O=C(CCCn1cnc([N+](=O)[O-])n1)Nc1cccc(Cl)c1`, the negative-log IC50 (pIC50) is 6.30. This compound also showed a pIC50 under setting [1] of less than 4.30. The pIC50 under setting [2] was 6.80.
In the same order, the values of `O=C(Nc1ncc([N+](=O)[O-])s1)C1CC1` are 6.00, less than 4.30 and 6.40.
In the same order, the values of `Clc1cc(Br)ccc1OCCCCn1ccnc1` are 6.60, 4.60 and 6.49.
As to `O=C(NCCc1cccnc1)c1ccc(-c2ccccc2F)o1`, the pIC50 was 6.70. Moreover, the pIC50 under setting [1] is less than 4.30. Besides, the pIC50 under setting [2] was 6.70.
For the compound `COc1ccc(S(=O)(=O)Nc2ccc(C(=O)Nc3nc(-c4ccccn4)cs3)cc2)cc1`, the pIC50 is 6.10. For the same compound, the negative-log IC50 (pIC50) under setting [1] was 5.20. The compound also had a pIC50 under setting [2] of 6.20.
As to `Oc1c(-c2n[nH]c(CCc3ccccc3)n2)ncc2cccnc12`, the pIC50 was 6.70. Besides, the pIC50 under setting [1] is 4.80. Besides, the pIC50 under setting [2] was 6.70.
With `Cc1[nH]n2c(=O)c3c(nc2c1-c1ccc(Cl)cc1)CCCC3`, the negative logarithm of the IC50 (pIC50) was 6.00. Under setting [1], the pIC50 was less than 4.30. Also, the pIC50 under setting [2] is 6.60.
Take `Nc1cc(-c2ccc3ncnc(N4CCOCC4)c3c2)cnc1N`: the pIC50 is 5.30. This compound also had a pIC50 under setting [1] of 5.49. Under setting [2], the pIC50 is 5.80.
On the same counts, the results for `Cc1ccc(NC(=O)c2ccc([N+](=O)[O-])s2)cc1S(=O)(=O)N1CCOCC1` are 6.40, 5.30 and 6.60.
With `CCC(CC)C(=O)Nc1cccc(C(=O)Nc2nnc(C3CCCCC3)s2)c1`, the pIC50 was 4.60. Under setting [1], this compound showed a pIC50 of less than 4.30. Further, under setting [2], the pIC50 is 4.80.
As for `c1ccc(-c2nc(NC3CCCC3)c3ccccc3n2)nc1`, the pIC50 was 6.10. In addition, under setting [1], the pIC50 was 6.30. This compound also gave a pIC50 under setting [2] of 5.70.
As to `O=C(Nc1ccc(-c2nc3ccccc3c(=O)[nH]2)cc1)c1cccs1`, the IC50 is > 50000 nM (inactive). Further, the pIC50 under setting [1] was less than 4.30. This compound also gave a pIC50 under setting [2] of less than 4.30.
For `c1ccc2c(CCOc3nccnc3-c3ccncc3)c[nH]c2c1`, the pIC50 was 6.80. In addition, under setting [1], the pIC50 was less than 4.30. Further, the pIC50 under setting [2] is 6.80.
With `CCCN(Cc1ccc(OC)c(OC)c1)Cc1cc(=O)c2c(C)cc(C)cc2[nH]1`, the pIC50 is 5.70. Moreover, the pIC50 under setting [1] is less than 4.30. Under setting [2], this compound gave a negative logarithm of the IC50 (pIC50) of 6.30.
In the same order, the values of `CC(C)(C)c1csc(NC(=O)c2ccc([N+](=O)[O-])s2)n1` are 6.49, 4.89 and 6.70.
For `O=C1CSC(c2cccnc2)N1c1ccc(Cl)cc1Cl` (stereo not drawn), the pIC50 was 6.60. Moreover, the pIC50 under setting [1] was less than 4.30. This compound had a pIC50 under setting [2] of 6.80.
In the same order, the values of `CN(Cc1nnnn1C1CCN(Cc2ccc(-n3ccnc3)cc2)CC1)c1ccc(F)cc1F` are 6.49, less than 4.30 and 6.49.
With `CN(Cc1ccc(F)cc1)c1ccc(OCC(=O)N2CCCCC2c2cccnc2)nn1` (stereo not drawn), the pIC50 was 6.40. In addition, the pIC50 under setting [1] was less than 4.30. This compound gave a pIC50 under setting [2] of 6.40.
With `COc1cccc(C(=O)[C@H]2C[C@@H]2CN(Cc2ccccn2)Cc2ccccn2)c1`, the pIC50 was 5.89. The pIC50 under setting [1] was 4.70. This compound also showed a pIC50 under setting [2] of 6.10.
For `COc1cccc(S(=O)(=O)Nc2ccc3c(c2)CC(N2CCC(NC(=O)C4CC4)CC2)C3)c1` (stereo not drawn), the IC50 is > 50000 nM (inactive). Also, the pIC50 under setting [1] is less than 4.30. Further, under setting [2], the pIC50 was 4.49.
On to `NCC(Cc1ccccc1)NC(=O)c1cnc(-c2c[nH]c3ncccc23)s1` (stereo not drawn), for which the IC50 is > 50000 nM (inactive). Under setting [1], this compound had a pIC50 of 6.20. Besides, under setting [2], the pIC50 was 4.70.
As to `O=[N+]([O-])c1ccc(-c2nnn(-c3ccc(Cl)cc3)n2)o1`, the pIC50 was 6.10. Besides, the pIC50 under setting [1] is 5.00. The pIC50 under setting [2] was 7.10.
Regarding `CCc1c(C)nc(-n2nc(C)cc2NC(=O)COc2ccccc2F)[nH]c1=O`, the pIC50 is 6.20. For the same compound, the pIC50 under setting [1] was 5.60. The compound also gave a pIC50 under setting [2] of 6.80.
On the same counts, the results for `NC(=O)c1ccc(-c2cccc(OCCN3CCN(C4CCCCC4)CC3)c2)cc1` are 5.80, less than 4.30 and 6.10.
Regarding `CCC(=O)N1N=C(c2ccc3c(c2)CCCC3)Sc2c1ncn2C(=O)CC`, the pIC50 was 4.70. The compound further gave a negative logarithm of the IC50 (pIC50) under setting [1] of less than 4.30. Besides, the pIC50 under setting [2] is 4.89.
On the same counts, the results for `CS(=O)(=O)c1ccc(CC(=O)Nc2nc(-c3ccc(Cl)s3)cs2)cc1` are 6.49, 4.80 and 6.40.
On the same counts, the results for `O=C(COc1ncnc2cc([N+](=O)[O-])ccc12)NC(=O)NC1CCCCC1` are 6.00, less than 4.30 and 6.30.
On the same counts, the results for `NC(=O)c1ccccc1Nc1nc(NC2CCCCC2)nc2[nH]ccc12` are 6.00, 4.60 and 6.00.
As for `O=C(Cc1ccccc1)Nc1ccccc1C(=O)Nc1nccs1`, the IC50 was > 50000 nM (inactive). This compound gave a pIC50 under setting [1] of less than 4.30. The compound further showed a pIC50 under setting [2] of less than 4.30.
Consider `Cc1[nH]nc(-c2nc3ccccc3[nH]2)c1C(=O)NC1CCCNC1` (stereo not drawn), for which the pIC50 is 7.20. Also, under setting [1], the pIC50 is 5.49. This compound also showed a pIC50 under setting [2] of 7.40.
Take `O=C(Nc1cccc(Cl)c1)N1CCCCC1c1cccnc1` (stereo not drawn): the pIC50 was 6.70. Under setting [1], this compound gave a pIC50 of less than 4.30. The pIC50 under setting [2] was 6.70.
For the compound `N#Cc1cc(-c2ccnc(Nc3cccc(CN4CCOCC4)c3)n2)ccc1NCCN`, the pIC50 is 4.49. Under setting [1], this compound had a pIC50 of 5.10. Besides, the pIC50 under setting [2] was 4.80.
Consider `Cc1nc2c(-c3nc(-c4ccc(N)cc4)n[nH]3)cccn2c1C`, for which the IC50 was > 50000 nM (inactive). In addition, the pIC50 under setting [1] is 5.00. The compound also showed a pIC50 under setting [2] of less than 4.30.
As to `CNc1cncc(C2CCCN2C(=O)Cc2ccc3ccccc3c2)n1` (stereo not drawn), the pIC50 was 6.80. For the same compound, the pIC50 under setting [1] was less than 4.30. This compound also gave a pIC50 under setting [2] of 6.80.
With `Cc1ccccc1OCC(=O)N1CCCN(c2cccnn2)CC1`, the pIC50 is 6.20. Further, under setting [1], the pIC50 was less than 4.30. Further, under setting [2], the pIC50 was 6.30.
On the same counts, the results for `COc1ncc(-c2ccc3nccc(-c4ccncc4)c3c2)cc1NS(C)(=O)=O` are 4.60, 5.30 and 4.89.
`N#Cc1cnc(Nc2cccc(CCN3CCOCC3)c2)nc1Nc1ccccc1C(N)=O`: the pIC50 is 5.49. Besides, the pIC50 under setting [1] is 7.89. Moreover, the pIC50 under setting [2] was 5.70.
On the same counts, the results for `C=CCn1nc([N+](=O)[O-])nc1Oc1ccc(Cl)cc1Cl` are 6.60, less than 4.30 and 6.89.
In the same order, the values of `Cc1nc(-c2ccc3c(c2)OCO3)sc1C(=O)NCc1ccc2c(c1)OCO2` are 6.10, less than 4.30 and 6.30.
`COc1ccc(Nc2nccc(N(C)c3n[nH]c4c(F)cccc34)n2)cc1S(C)(=O)=O`: the pIC50 is 5.40. In addition, the negative-log IC50 (pIC50) under setting [1] was 5.10. The pIC50 under setting [2] is 5.70.
In the case of `NC(=O)c1cc(NC(=O)c2ccccc2COc2ccccc2)ccc1Cl`, the pIC50 was 4.49. The pIC50 under setting [1] was less than 4.30. For the same compound, under setting [2], the pIC50 is 4.60.

Source of the values: PubChem BioAssay AID1159565 (GlaxoSmithKline (GSK), 2015).
